Measurements: ChEMBL document CHEMBL3785014, “A Binding Site on IL-17A for Inhibitory Macrocycles Revealed by Hydrogen/Deuterium Exchange Mass Spectrometry” (J Med Chem, 2016)
Active and inactive are the calls of the source.

How the values were obtained:
[1] = target: Interleukin-17A (Homo sapiens) (UniProt Q16552); assay: Binding affinity to recombinant human IL-17A assessed as increase in deuterium uptake at 100 to 116 residues at 10 uM after 10 to 3600 secs by HDX-MS
[2] = target: Interleukin-17A (Homo sapiens) (UniProt Q16552); assay: Binding affinity to recombinant human IL-17A assessed as protection from deuterium uptake at 90 to 101 residues at 10 uM after 10 to 3600 secs by HDX-MS
[3] = target: Interleukin-17A (Homo sapiens) (UniProt Q16552); assay: Binding affinity to recombinant human IL-17A assessed as protection from deuterium uptake at 92 to 101 residues at 10 uM after 10 to 3600 secs by HDX-MS
[4] = target: Interleukin-17A (Homo sapiens) (UniProt Q16552); assay: Binding affinity to recombinant human IL-17A assessed as protection from deuterium uptake at 58 to 72 residues at 10 uM after 10 to 3600 secs by HDX-MS
[5] = target: Interleukin-17A (Homo sapiens) (UniProt Q16552); assay: Binding affinity to recombinant human IL-17A assessed as protection from deuterium uptake at 58 to 71 residues at 10 uM after 10 to 3600 secs by HDX-MS
[6] = target: Interleukin-17A (Homo sapiens) (UniProt Q16552); assay: Binding affinity to recombinant human IL-17A assessed as increase in deuterium uptake at 104 to 116 residues at 10 uM after 10 to 3600 secs by HDX-MS
[7] = target: Interleukin-17A (Homo sapiens) (UniProt Q16552); assay: Binding affinity to recombinant human IL-17A assessed as protection from deuterium uptake at 92 to 99 residues at 10 uM after 10 to 3600 secs by HDX-MS
[8] = target: Interleukin-17A (Homo sapiens) (UniProt Q16552); assay: Binding affinity to recombinant human IL-17A assessed as increase in deuterium uptake at 103 to 114 residues at 10 uM after 10 to 3600 secs by HDX-MS
[9] = target: Interleukin-17A (Homo sapiens) (UniProt Q16552); assay: Binding affinity to recombinant human IL-17A assessed as protection from deuterium uptake at 99 to 103 residues at 10 uM after 10 to 3600 secs by HDX-MS
[10] = target: Interleukin-17A (Homo sapiens) (UniProt Q16552); assay: Binding affinity to recombinant human IL-17A assessed as increase in deuterium uptake at 102 to 120 residues at 10 uM after 10 to 3600 secs by HDX-MS
[11] = target: Interleukin-17A (Homo sapiens) (UniProt Q16552); assay: Binding affinity to recombinant human IL-17A assessed as increase in deuterium uptake at 102 to 116 residues at 10 uM after 10 to 3600 secs by HDX-MS

Measured: Activity

Sequence of Interleukin-17A (Homo sapiens) (Q16552 whole entry, the tested form may be a part): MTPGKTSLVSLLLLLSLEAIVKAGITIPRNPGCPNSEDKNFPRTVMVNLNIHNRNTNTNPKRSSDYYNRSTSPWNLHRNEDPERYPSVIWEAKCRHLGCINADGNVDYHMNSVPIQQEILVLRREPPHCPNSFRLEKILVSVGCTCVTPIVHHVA

O=C1CNC(=O)[C@@H](Cc2ccc(NC(=O)[C@H](Cc3ccccc3Cl)NC(=O)Cc3ccccc3)cc2)NC(=O)CC2(CCCC2)CC(=O)NCCCCCN1
active: all assays above

O=C1CNC(=O)[C@@H](Cc2ccc(NC(=O)[C@H](Cc3ccccc3Cl)NC(=O)Cc3ccccc3)cc2)NC(=O)CC2(CCCC2)CC(=O)N[C@H](C(=O)O)CCCCN1
active: all assays above

O=C1CC2(CCCC2)CC(=O)N[C@H](Cc2ccc(NC(=O)[C@H](Cc3ccccc3Cl)NC(=O)Cc3cccc(O)c3)cc2)C(=O)NCCOCCOCCN1
active: all assays above
